# Patent US20220160652A1, “USE OF VITAMIN K IN COMBINATION WITH ANTICOAGULANTS” (KAYDENCE PHARMA AS, priority 2019, published 2022)
# “Also recorded” adds a separate entry of the source.
# Columns and labels:
# [1] = system: transgenic Ren-2 rats [TGR(mREN-2)27]; experiment: T-TAS thrombus formation in whole blood of treated TGR (Ren-2) rats; format: in vivo, rat
# Method: This experiment was conducted in order to evaluate the effects of vitamin K2 (MK-7) on the anticoagulant activity of the new oral anticoagulants (NOAC) rivaroxaban and dabigatran using the T-TAS Total Thrombus-formation Analysis System. The T-TAS Total Thrombus-formation Analysis System is a microchip-based flow chamber system capable of evaluating whole-blood thrombogenicity. It is a useful tool in monitoring the efficacy of anticoagulants on thrombus formation and predicting the risk of bleeding complications. […] Four days before the start of the treatment, the first part of animals' body weight and food intake was measured in selected representative three cages (rats n=9) to calculate the appropriate amount of tested compounds required for addition to the diet to obtain the dosing indicated in Table 1. […] The body mass of the rats was measured at the beginning and at the end of treatment. At the beginning and at the end of treatment, the food intake per day was measured in representative group of animals to monitor the daily dosing of tested compounds (per kg of body mass). The thrombus formation in vitro was measured in whole blood using a microchip-based flow chamber system according to manufacturers' protocol (Total Thrombus-formation Analyser System, T-TAS; Fujimori Kogyo Co., Ltd., Tokyo, Japan). […]
# Sprague-Dawley rats = experiment: T-TAS thrombus formation in whole blood of treated Sprague-Dawley rats; format: in vivo, rat
# Method: This experiment was conducted in order to evaluate the effects of vitamin K2 (MK-7) on the anticoagulant activity of the new oral anticoagulants (NOAC) rivaroxaban and dabigatran using the T-TAS Total Thrombus-formation Analysis System. The T-TAS Total Thrombus-formation Analysis System is a microchip-based flow chamber system capable of evaluating whole-blood thrombogenicity. It is a useful tool in monitoring the efficacy of anticoagulants on thrombus formation and predicting the risk of bleeding complications. To perform the study, 45 wild-type male Sprague-Dawley and 45 transgenic male Ren-2 rats [TGR(mREN-2)27] at the age of 10-11 weeks at the beginning of the treatment period were purchased from animal facility IKEM-CEM Institute of Clinical and Experimental Medicine (Prague, Czech Republic). All animals in the experiment were housed in individually ventilated cages (2-3 rats per cage) and kept in the animal rooms of JCET at a relative humidity of 55±10%, a temperature of 22±2 ° C., and a light cycle of 7 AM to 7 PM. The rats had free access to food and water. After delivery, animals were randomly divided into 10 experimental groups (5 or 10 rats per group), as indicated below in Table 1. Four days before the start of the treatment, the first part of animals' body weight and food intake was measured in selected representative three cages (rats n=9) to calculate the appropriate amount of tested compounds required for addition to the diet to obtain the dosing indicated in Table 1. It was estimated that food intake was approximately 30 g of chow per rat per day. […] The body mass of the rats was measured at the beginning and at the end of treatment. At the beginning and at the end of treatment, the food intake per day was measured in representative group of animals to monitor the daily dosing of tested compounds (per kg of body mass). The thrombus formation in vitro was measured in whole blood using a microchip-based flow chamber system according to manufacturers' protocol (Total Thrombus-formation Analyser System, T-TAS; Fujimori Kogyo Co., Ltd., Tokyo, Japan). […]
# VSMCs [2] = experiment: Hypoxia (CoCl2) induced oxidative stress in VSMCs (DCFDA); format: cell-based
# Method: This study was performed to determine whether intracellular oxidative stress in VSCMs is derived from mitochondrial dysfunction. To perform this study, VSMCs were incubated with cobalt chloride, a known stabilizer of HIF1a. Cobalt chloride binding to HIF1a prevents the degradation of HIF1a and thus results in a cellular hypoxia state. HIF1a has been implicated in cancer biology as well as a number of other pathophysiologies, specifically in areas of vascularization and angiogenesis, energy metabolism, cell survival, and tumor invasion. Under normal circumstances, after injury, HIF1a is degraded by the enzyme prolyl hydroxylase (PHD). The continued up-regulation of HIF1 a (mimicked by cobalt chloride) promotes tumor growth and metastasis through its role in initiating angiogenesis and regulating cellular metabolism to overcome hypoxia. Hypoxia promotes apoptosis in both normal and tumor cells. Additionally, hypoxia generates significant intracellular oxidative stress.
# To perform the study, VSMCs (10,000 cells/well) were plated in a 96-well plate and left to adhere overnight. Next, the medium was changed to a medium supplemented with 50 μM CoCl2 for 19 hours. The next day, cells were washed and incubated for 1 hour with 20 μM DCFDA in the presence of a vehicle (solvent for CoCl2 and vitamin K2 (MK-7)/UQ10), 10 μM vitamin K2 (MK-7), or 10 μM UQ10 in medium. The medium was then changed to a medium supplemented with vehicle, vitamin K2 (MK-7)/UQ10, or CoCl2, and fluorescent was measured for 6 hours. Fluorescence intensity was normalized for cell count.
# VSMCs [3] = experiment: ATP increase, 24 h incubation (luminescence); format: cell-based; settings: 10 μM, p=0.014 for MK-7
# Method: This study was performed to determine if vitamin K2 (MK-7) affects ATP generation. ATP is generated via glycolysis in the cytoplasm and via both the Krebs-cycle and oxidative phosphorylation in the mitochondria. ATP generation via glycolysis delivers only 2 ATP, whereas ATP generation in the mitochondria generates some 32 ATP.
# (§1) To perform this study, VSCMs (5000 cells/well) were plated in 96-well plates and left to adhere overnight. Next, cells were incubated for 24 hours with either vehicle, vitamin K2 (MK-7) (10 μM), or UQ10 (10 μM). Hoechst was added to correct for cell number (1 μg/mL). Next, ATP was measured using mammalian lysis buffer for 5 minutes after which 50 μL ATP substrate solution was added to the wells and incubated for 10 minutes in a dark environment. Finally, the medium was transferred to a white plate to measure luminescence
# VSMCs [4] = experiment: ATP increase, 48 h incubation with CoCl2 comparison (luminescence); format: cell-based; settings: 10 μM, vs CoCl2 100 μM
# Method: as §1, with “This study was performed to further investigate the origin of ATP production that is influenced by vitamin K2 (MK-7). To” for “To”, “for 48” for “for 24”, “vehicle, CoCl2 (100 μM),” for “vehicle,”, “5 minutes,” for “5 minutes”, “Finally,” for “Finally, the”, “measure luminescence.” for “measure luminescence”
# VSMCs [5] = experiment: Warfarin-induced oxidative stress in VSMCs, warfarin concentration series (DCFDA); format: cell-based; settings: warfarin 10 to 100 μM, 6 hours
# Method: It is known that the level of reactive oxygen species in cells can be measured by measuring the conversion of 2′,7′—dichlorofluorescein diacetate (DCFDA) to the fluorescent dye 2′,7′-dichlorofluorescein (DCF). The fluorescence generated by cells subjected to DCFDA is directly proportional to the amount of oxidized DCFDA to DCF.
# In this study, vitamin K metabolism was blocked using the vitamin K-antagonist warfarin. The study was conducted to investigate whether interference with vitamin K metabolism would cause intracellular oxidative stress. To perform the study, VSMCs (10,000 cells/well) were plated in 96-well plates and left to adhere overnight. Next, cells were incubated for 1 hour with 20 μM DCFDA.
# The medium was then changed to a medium supplemented with different concentrations of warfarin ranging from 10 to 100 μM, and fluorescence intensity was measured over 6 hours. Fluorescence was normalized for number of cells.
smiles,measurement,setting,value
"O=C(NC[C@H]1CN(c2ccc(N3CCOCC3=O)cc2)C(=O)O1)c1ccc(Cl)s1 [Rivaroxaban, rivaroxaban, reference compound]",thrombus formation,[1],also inhibited thrombus formation
same,thrombus formation,Sprague-Dawley rats,inhibited thrombus formation
"COC1=C(OC)C(=O)C(C/C=C(\C)CC/C=C(\C)CC/C=C(\C)CC/C=C(\C)CC/C=C(\C)CC/C=C(\C)CC/C=C(\C)CC/C=C(\C)CC/C=C(\C)CCC=C(C)C)=C(C)C1=O [UQ10, reference compound]",hypoxia induced oxidative stress (counteraction),"VSMCs [2]; 10 μM, after 50 μM CoCl2 for 19 hours",This effect was not found
same,ATP production in VSMCs compared to the vehicle,VSMCs [3],only vitamin K2 (MK-7) increased ATP production in VSMCs significantly
same,ATP levels compared to CoCl2,VSMCs [4],significant higher ATP levels
"[Cl][Co][Cl] [CoCl2, cobalt chloride]",oxidative stress induced by cobalt chloride,VSMCs [2]; 50 μM CoCl2,induces increased oxidative stress
CC(=O)CC(c1ccccc1)c1c(O)c2ccccc2oc1=O (stereo not shown) [warfarin],intracellular oxidative stress caused by warfarin,VSMCs [5],did cause intracellular oxidative stress; also recorded: results in increased intracellular oxidative stress
